In ChEMBL document CHEMBL2074204, “The endothelin antagonist bosentan inhibits the canalicular bile salt export pump: a potential mechanism for hepatic adverse reactions” (Clin Pharmacol Ther, 2001) one finds Ki data, which are given here for two compounds.

In general, Ki refers to a dissociation constant, usually derived from enzyme kinetics or from competition with a known ligand.

The experiment addresses T1, Bile salt export pump (Rattus norvegicus, UniProt O70127).
T1 sequence (O70127 whole entry): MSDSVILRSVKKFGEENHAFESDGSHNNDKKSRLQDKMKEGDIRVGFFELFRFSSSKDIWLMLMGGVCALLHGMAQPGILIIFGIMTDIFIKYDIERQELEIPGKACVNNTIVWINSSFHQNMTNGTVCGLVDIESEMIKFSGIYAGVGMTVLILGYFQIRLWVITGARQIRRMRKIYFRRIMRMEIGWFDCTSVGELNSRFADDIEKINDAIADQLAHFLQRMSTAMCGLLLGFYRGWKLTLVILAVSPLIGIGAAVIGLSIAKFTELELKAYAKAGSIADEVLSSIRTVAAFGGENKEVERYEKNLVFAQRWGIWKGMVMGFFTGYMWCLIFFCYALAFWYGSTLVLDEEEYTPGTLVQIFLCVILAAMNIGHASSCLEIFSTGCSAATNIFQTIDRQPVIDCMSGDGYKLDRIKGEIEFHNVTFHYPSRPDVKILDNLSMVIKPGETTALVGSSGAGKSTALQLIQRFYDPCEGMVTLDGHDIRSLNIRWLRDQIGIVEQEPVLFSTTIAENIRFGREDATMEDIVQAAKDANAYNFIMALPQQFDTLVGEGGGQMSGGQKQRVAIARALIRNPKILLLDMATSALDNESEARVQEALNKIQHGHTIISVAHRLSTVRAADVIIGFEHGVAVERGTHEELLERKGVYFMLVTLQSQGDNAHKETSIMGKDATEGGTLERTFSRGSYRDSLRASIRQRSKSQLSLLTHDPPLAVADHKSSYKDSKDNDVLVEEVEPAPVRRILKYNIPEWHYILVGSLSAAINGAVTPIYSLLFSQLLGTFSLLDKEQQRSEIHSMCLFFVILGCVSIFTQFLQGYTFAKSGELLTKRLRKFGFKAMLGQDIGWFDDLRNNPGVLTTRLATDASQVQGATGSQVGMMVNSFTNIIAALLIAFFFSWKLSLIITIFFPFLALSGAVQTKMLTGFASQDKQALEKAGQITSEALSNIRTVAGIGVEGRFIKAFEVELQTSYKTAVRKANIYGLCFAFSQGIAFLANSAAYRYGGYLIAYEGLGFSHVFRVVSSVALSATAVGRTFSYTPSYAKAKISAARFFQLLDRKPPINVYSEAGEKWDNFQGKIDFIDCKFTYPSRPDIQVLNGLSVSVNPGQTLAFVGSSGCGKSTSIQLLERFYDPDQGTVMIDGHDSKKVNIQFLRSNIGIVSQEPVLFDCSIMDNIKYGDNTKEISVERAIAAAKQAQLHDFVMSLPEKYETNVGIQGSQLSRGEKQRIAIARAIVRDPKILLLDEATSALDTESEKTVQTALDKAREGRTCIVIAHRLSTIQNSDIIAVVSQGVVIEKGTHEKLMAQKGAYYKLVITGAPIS
Description: TP_TRANSPORTER: inhibition of Taurocholate uptake in membrane vesicle from Bsep-expressing Sf9-cell. In kind it is functional, cell membranes.

Regarding `CC(C)(C)c1ccc(S(=O)(=O)Nc2nc(-c3ncccn3)nc(OCCO)c2Cc2ccccc2O)cc1` [BOSENTAN M2], the Ki was determined as 8.5 µM. With `COc1ccccc1Oc1c(NS(=O)(=O)c2ccc(C(C)(C)C)cc2)nc(-c2ncccn2)nc1OCCO` [BOSENTAN], the Ki turned out to be 12 µM.
